Data published in patent US20240317708A1, “INHIBITORS OF TRANSGLUTAMINASES” (ZEDIRA GMBH, priority 2021, published 2024).

Assays:
[1] = Caco-2 permeability assay (CacoReady kit); type: in vitro ADME; conditions: human
Procedure, shortened: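 Caco-2 monolayer barrier, commercial ready-to-use kit, manufacturer protocol. Read-out: Papp.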

[2] = Log D shake flask method (octanol / PBS pH 7.4, HPLC); type: physicochemical; conditions: octanol/phosphate-buffered saline (PBS); octanol / PBS pH 7.4, shake flask
Protocol: In order to classify the inventive compounds according to their lipophilicity, Log D values (distribution coefficient) were determined by means of the well-established shake flask method, measuring the partition of a compound between an octanol and phosphate-buffered saline (PBS, pH 7.4) by HPLC.

[3] = biological target: T1, recombinant human transglutaminase 2 (Homo sapiens, UniProt P21980); assay: Transglutaminase assay (dansylcadaverine incorporation into dimethylcasein, DCC-assay); type: biochemical; conditions: recombinant human TG2 10 nM, dansylcadaverine/dimethylcasein, 37° C.
T1 construct: purchased Zedira T022
T1 sequence (P21980 1-687): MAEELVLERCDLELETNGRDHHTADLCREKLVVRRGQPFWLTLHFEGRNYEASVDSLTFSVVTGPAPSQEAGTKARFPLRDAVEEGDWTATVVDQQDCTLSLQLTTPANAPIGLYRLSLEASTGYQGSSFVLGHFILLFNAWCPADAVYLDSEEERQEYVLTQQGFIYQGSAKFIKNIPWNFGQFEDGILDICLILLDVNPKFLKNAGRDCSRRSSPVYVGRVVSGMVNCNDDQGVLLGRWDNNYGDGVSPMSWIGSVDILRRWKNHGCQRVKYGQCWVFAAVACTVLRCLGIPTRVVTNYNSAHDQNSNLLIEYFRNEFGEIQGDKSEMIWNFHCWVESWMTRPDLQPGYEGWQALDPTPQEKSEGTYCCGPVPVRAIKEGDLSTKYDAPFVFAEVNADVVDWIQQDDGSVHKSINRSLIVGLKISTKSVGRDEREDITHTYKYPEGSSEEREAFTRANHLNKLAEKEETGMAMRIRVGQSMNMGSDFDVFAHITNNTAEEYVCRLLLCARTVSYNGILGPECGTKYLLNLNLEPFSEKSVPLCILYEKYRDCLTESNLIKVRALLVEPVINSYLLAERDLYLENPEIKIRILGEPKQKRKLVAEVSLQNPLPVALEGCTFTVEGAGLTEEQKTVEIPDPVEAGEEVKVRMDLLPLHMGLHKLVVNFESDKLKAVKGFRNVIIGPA
Procedure, shortened: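 IC50 derived from fluorescence slope between 20 and 30 min (λex 330 nm, λem 500 nm, 37 °C), expressed relative to a 2% DMSO control. Reaction: 10 nM recombinant human TG2, 4 μM dimethylcasein, 16.7 μM dansylcadaverine, 10 mM CaCl2 and glutathione, pH 8.0.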

In the case of `COC(=O)/C=C/CC[C@H](NC(=O)c1cncc(C(=O)OC)c1)C(=O)Nc1cccn(CC(=O)NC2C3CC4CC(C3)CC2C4)c1=O` (stereo partly drawn) [III-36, (S,E)-methyl 5-(1-(1-(2-(2-adamantylamino)-2-oxoethyl)-2-oxo-1,2-dihydropyridin-3-ylamino)-7-methoxy-1,7-dioxohept-5-en-2-ylcarbamoyl)nicotinate], the Papp [1] is reported as < 1 ×10⁻⁶ cm/s, the logD [2] is reported as 3 to 5 and the IC50 [3] is reported as 25 to 250 nM.

For `COC(=O)/C=C/CC[C@H](NC(=O)[C@@H]1CCCN1C)C(=O)Nc1cccn(CC(=O)NC2C3CC4CC(C3)CC2C4)c1=O` (stereo partly drawn) [III-25, (S,E)-methyl 7-(1-(2-(2-adamantylamino)-2-oxoethyl)-2-oxo-1,2-dihydropyridin-3-ylamino)-6-((S)-1-methylpyrrolidine-2-carboxamido)-7-oxohept-2-enoate], the Papp [1] was < 1 ×10⁻⁶ cm/s, the logD [2] was 3 to 5 and the IC50 [3] was 25 to 250 nM.

With `C=CCNC(=O)/C=C/CC[C@H](NC(=O)c1ccc2cnccc2n1)C(=O)Nc1cccn(CC(=O)NC23CC(C2)C3)c1=O` [III-150, (S,E)-N1-allyl-N7-(1-(2-(bicyclo[1.1.1]pentan-1-ylamino)-2-oxoethyl)-2-oxo-1,2-dihydropyridin-3-yl)-6-(1,6-naphthyridine-2-carboxamido)hept-2-enediamide] the Papp [1] was < 1 ×10⁻⁶ cm/s, the logD [2] was < 1 and the IC50 [3] was 25 to 250 nM.

With `Cn1ccnc1C(=O)N[C@@H](CC/C=C/C(=O)c1ccccc1)C(=O)Nc1cccn(CC(=O)NC23CC(C2)C3)c1=O` [III-157, (S,E)-N-(1-(1-(2-(bicyclo[1.1.1]pentan-1-ylamino)-2-oxoethyl)-2-oxo-1,2-dihydropyridin-3-ylamino)-1,7-dioxo-7-phenylhept-5-en-2-yl)-1-methyl-1H-imidazole-2-carboxamide] the Papp [1] was < 1 ×10⁻⁶ cm/s, the logD [2] was 1 to 3 and the IC50 [3] was 250 to 1500 nM.

In the case of `O=C(/C=C/CC[C@H](NC(=O)c1nc(Br)cs1)C(=O)Nc1cccn(CC(=O)NC23CC(C2)C3)c1=O)NCc1ccccc1` [III-155, (S,E)-N1-benzyl-N7-(1-(2-(bicyclo[1.1.1]pentan-1-ylamino)-2-oxoethyl)-2-oxo-1,2-dihydropyridin-3-yl)-6-(4-bromothiazole-2-carboxamido)hept-2-enediamide], the Papp [1] is reported as 1 to 10 ×10⁻⁶ cm/s, the logD [2] is reported as 1 to 3 and the IC50 [3] is reported as 25 to 250 nM.

In the case of `COC(=O)/C=C/CC[C@H](NC(=O)c1oc2ccccc2c1C)C(=O)Nc1cccn(CC(=O)NC23CC4(C)CC(C)(CC(C)(C4)C2)C3)c1=O` [III-92, (S,E)-methyl 7-(1-(2-(3,5,7-trimethyl-1-adamantylamino)-2-oxoethyl)-2-oxo-1,2-dihydropyridin-3-ylamino)-6-(3-methylbenzofuran-2-carboxamido)-7-oxohept-2-enoate], the Papp [1] is reported as 1 to 10 ×10⁻⁶ cm/s, the logD [2] is reported as 3 to 5 and the IC50 [3] is reported as < 25 nM.

With `COC(=O)/C=C/CC[C@H](NC(=O)c1oc2ccccc2c1C)C(=O)Nc1cccn(CC(=O)NC23CC4CC(CC(O)(C4)C2)C3)c1=O` [III-50, (S,E)-methyl 7-(1-(2-(3-hydroxyadamantan-1-amino)-2-oxoethyl)-2-oxo-1,2-dihydropyridin-3-ylamino)-6-(3-methylbenzofuran-2-carboxamido)-7-oxohept-2-enoate] the Papp [1] was < 1 ×10⁻⁶ cm/s, the logD [2] was 1 to 3 and the IC50 [3] was 25 to 250 nM.

In the case of `COC(=O)/C=C/CC[C@H](NC(=O)c1sc(Br)cc1Br)C(=O)Nc1cccn(CC(=O)NC2C3CC4CC(C3)CC2C4)c1=O` (stereo partly drawn) [III-15, (S,E)-methyl 6-(3,5-dibromothiophene-2-carboxamido)-7-(1-(2-(2-adamantylamino)-2-oxoethyl)-2-oxo-1,2-dihydropyridin-3-ylamino)-7-oxohept-2-enoate], the Papp [1] is reported as 1 to 10 ×10⁻⁶ cm/s, the logD [2] is reported as 3 to 5 and the IC50 [3] is reported as < 25 nM.

In the case of `COC(=O)/C=C/CC[C@H](NC(=O)c1ccc2ccoc2c1)C(=O)Nc1cccn(CC(=O)NC2C3CC4CC2CC(C(N)=O)(C4)C3)c1=O` (stereo partly drawn) [III-166, (S,E)-methyl 6-(benzofuran-6-carboxamido)-7-(1-(2-(4-aminoadamantane-1-carboxamide)-2-oxoethyl)-2-oxo-1,2-dihydropyridin-3-ylamino)-7-oxohept-2-enoate], the Papp [1] is reported as < 1 ×10⁻⁶ cm/s, the logD [2] is reported as 1 to 3 and the IC50 [3] is reported as 25 to 250 nM.
